Reference: PubChem BioAssay (NCI)
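48-hour exposure; five concentrations; linearly interpolated endpoints. TGI denotes the concentration required for complete inhibition of growth.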 Where a SMILES comes first, the peptide text is derived from it.

Columns and labels:
Assay in all cases: NCI tumour cell line growth inhibition, 48 h
[1] = tested on: LOX IMVI melanoma
[2] = tested on: HCT-116 colon
[3] = tested on: ACHN renal
[4] = tested on: OVCAR-3 ovarian
[5] = tested on: SF-295 CNS
[6] = tested on: U251 CNS
[7] = tested on: NCI-H23 lung
[8] = tested on: SN12C renal
[9] = tested on: OVCAR-4 ovarian
[10] = tested on: MDA-MB-231 breast

Row | Structure (SMILES) | TGI [1] [µM] | TGI [2] [µM] | TGI [3] [µM] | TGI [4] [µM] | TGI [5] [µM] | TGI [6] [µM] | TGI [7] [µM] | TGI [8] [µM] | TGI [9] [µM] | TGI [10] [µM]
1 | CCOC(=O)C12CC(C)=C(C)CC1CCCc1ccccc12 (centres undefined) | 30.8 | 34.3 | 36 | 42.6 | 86.3 | 39.6 | > 100 | 58.3 | > 100 | 31.5
2 | COP(=O)(OC)[C@H](O)[C@H]1C[C@@H]1c1ccccc1 | > 100 |  | > 100 | > 100 | > 100 | > 100 | > 100 |  | > 100 | > 100
3 | COc1ccc(N=Cc2ccc(N(CCC#N)S(=O)(=O)c3ccccc3)cc2C)cc1 |  | > 100 | > 100 | > 100 | > 100 | > 100 | > 100 | > 100 | > 100 | 
4 | COc1cc(C2C(=O)C(Cl)N2Nc2nc(C)cc(=O)[nH]2)cc(OC)c1OC (centres undefined) | 27.5 | 49.7 | 68.5 | 45.1 |  | 36.3 | 50.3 | 53.1 | 56.2 | 
5 | Cc1ccc2c3c1[C@@H]1O[C@@H]1c1cccc(c1-3)[C@@H]1O[C@H]21 | 7.38 | 27.7 | 31 |  | 31.4 | 28.9 | 31.8 | 25.5 | 33.3 | 36.2
6 | COc1cccc(NC(=O)CC(=O)NN2C(=O)/C(=C/c3ccc(N(CCC#N)CCC#N)cc3)N=C2c2cc([N+](=O)[O-])ccc2Cl)c1 | > 100 | > 100 | > 100 | > 100 | > 100 | > 100 | > 100 | > 100 | > 100 | 
7 | Cc1cn(Cc2cn(CC3OC(n4cc(C)c(=O)[nH]c4=O)CC3O)nn2)c(=O)[nH]c1=O (centres undefined) |  | > 100 | > 100 | > 100 | > 100 | > 100 | > 100 | > 100 | > 100 | > 100
8 | COc1ccc(N=Nc2c(N)nn(C)c2N)cc1 | > 100 | > 100 | > 100 | > 100 | > 100 | > 100 | > 100 | > 100 | > 100 | 
9 | CCCCCCCCCCCCSC(=S)c1c(C)[nH]n(CCCCCCCCCCCC)c1=O | > 100 | > 100 | > 100 | > 100 | > 100 | > 100 | > 100 | > 100 | > 100 | 
10 | COC(=O)c1ccc2c(c1)sc1nc(-c3ccc(OC)cc3)cn12 | > 100 | > 100 | > 100 | > 100 | > 100 | > 100 | > 100 | > 100 | > 100 | > 100
11 | CCCC[C@H]1C(=O)O[C@H](C)[C@H](NC(=O)c2cccc(NC=O)c2OC)C(=O)O[C@@H](C)[C@@H]1OC(=O)CC(C)C (tested in a mixture with another compound) | 23.2 | 28.4 | 41.4 | 27.7 | 30.3 | 18.9 | 26.5 | 44.2 | 21.1 | 29.8
12 | CCC(C)C(NC(=O)C(CC(C)C)NC(=O)CNC(=O)C(NC(=O)C1CCCN1C(=O)C(CC(C)C)NC(=O)C(N)Cc1ccccc1)C(C)CC)C(=O)NC(CC(C)C)C(N)=O (centres undefined) (H-FLPIGLIL-NH2; configuration not given here) | > 75 | > 75 | > 75 | > 75 | > 75 | > 75 | > 75 | > 75 | > 75 | > 75
13 | COc1ccc2c(c1)CCCc1c-2nc2ccccc2c1N | 20.9 | 18.6 | 29 | 27.5 | 23.1 | 25.2 | 31.6 | 17.9 | 27.3 | 19
14 | O=C(CSSCC(=O)OCCS(=O)(=O)Nc1ccc(Br)cc1)OCCS(=O)(=O)Nc1ccc(Br)cc1 | 42.3 |  | 82.8 | 37.6 | > 100 | > 100 | 64 | 59.8 | 33 | 
15 | O=c1c(-c2ccccc2)c(SCCN2CCOCC2)n(-c2ccccc2)c(=S)n1-c1ccccc1 | > 100 |  | > 100 | > 100 | > 100 | > 100 | > 100 |  | > 100 | > 100
16 | CCCCCCCCCCCCCCCCCC(=O)OCC1OC(OC)C(NC(=O)N(CCCl)N=O)C(O)C1O (centres undefined) | 31.8 |  | 47.3 | 65.6 | 32.6 |  | 43 | 30.3 | 76.1 | 
17 | O=c1[nH]c(=O)n(CCOCP(=O)(O)O)nc1Br | > 100 |  | > 100 | > 100 |  | > 100 | > 100 | > 100 |  | > 100
18 | Cc1cc(=O)n2c3c(c4c(cc13)c(CN(C)C)cc(=O)n4C)OC2 | > 100 | > 69.5 | 39.1 | 80.1 | > 72.7 | > 100 | 50.2 | > 100 | > 77.9 | 98.7
